{"source": "paper PMC5974751", "about": "“NKp44-Derived Peptide Binds Proliferating Cell Nuclear Antigen and Mediates Tumor Cell Death” (Frontiers in Immunology, 2018)", "key": {"B16 cells": {"test_system": "B16 cells", "test": "Flow cytometry based cell death assay (PI), B16", "design": "species or system murine", "details": "0–8 µM, 24 h", "protocol": "(§1) Peptides were diluted before the incubation with the target cells with free DMEM culture medium to 0–16 µM according to peptide molecular weight. For adding the peptides, 0.5 ml was removed from each well, and 0.5 ml of diluted peptides was added to a final volume of 1 ml, 5% FCS, duplicates. Peptides were incubated with target cells for 24 h, and then the medium was collected, adherent cells were removed with trypsin–EDTA (0.5 ml, 3 min, BI: 03-052-1B), 1 ml of complete medium was added to each well, and the medium was collected (final volume 2.5 ml, on ice). For the cell death assay, samples were then centrifuged (1,300 rpm, 4°C, 5 min), the medium was removed, fresh 1 ml 10% FCS was added, and then 1 µl of 1 mg/ml PI was added to each sample and incubated (15 min, on ice) with the target cells. Before analyzing the samples, samples were centrifuged (1,300 rpm, 4°C, 5 min), the medium was removed, and fresh 0.2 ml FCAS buffer (PBS 1×, 20% FCS, 0.5% NaN3) was added. Samples were then read and analyzed using BD FACSCanto™ II and FlowJo®. APIM peptide and camptothecin (CPT) were used as positive controls ([38], [54]–[56]). Specific cell death was calculated as following: Y = 100*((sample cell death − basal cell death)/(100 − basal cell death)). Basal cell death = % of PI positive cells following incubation in complete culture media."}, "4T1 cells": {"test_system": "4T1 cells", "test": "Flow cytometry based cell death assay (PI), 4T1", "design": "species or system murine", "details": "4T1, PI flow cytometry, 0–8 µM, 24 h", "protocol": "as §1"}, "MDA-MB-231 cells": {"test_system": "MDA-MB-231 cells", "test": "Flow cytometry based cell death assay (PI), MDA-MB-231", "design": "species or system human", "details": "MDA-MB-231, PI flow cytometry, 0–8 µM, 24 h", "protocol": "as §1"}, "[1]": {"test_system": "4T1 mammary carcinoma cells", "test": "PrestoBlue cell viability, 4T1", "assay_type": "cell-based, murine", "details": "4T1, PrestoBlue, 24 h; peptides 0–8 µM; selenite 25 µM", "protocol": "(§2) Target cells (2.5 × 10^4 cells/well of a 48-well plate, Corning) were seeded and incubated in 37°C, 5% CO2 for 24 h in 0.5 ml of fresh complete DMEM (10% FBS) culture medium. According to molecular weight peptides were diluted from 8 to 2 µM with 5% FBS containing DMEM culture medium just before the incubation with the target cells. Medium was removed from each well, and 250 µl of diluted peptides was added and incubated for another 24 h at 37°C, 5% CO2. PrestoBlue (A13261, Invitrogen™) solution was prepared by diluting the dye 10-fold with complete DMEM. Medium was discarded from each well, and 250 µl of PrestoBlue solution was added to each well, shake gently and incubated at 37°C for another 1 h. Emission at 560 nm was measured in Premium Quad4 Monochromators plate reader (Tecan). Normalization was done relative to the appropriate control (DMEM or DMSO) to calculate the percentage of viable cells in each group. Selenite (25 µM) was used as a positive control ([52], [53])."}, "[2]": {"test_system": "A549 lung carcinoma cells", "test": "PrestoBlue cell viability, A549", "assay_type": "cell-based, human", "details": "24 h, peptides 0–8 µM, selenite 25 µM", "protocol": "as §2"}, "[3]": {"test_system": "pep8–PCNA interaction (recombinant PCNA)", "test": "ELISA-based inhibition of biotin-pep8 binding to PCNA", "design": "species or system human", "details": "inhibitor 25 µg/ml 1 h, then biotin-pep8 5 µg/ml 1 h, room temperature, O.D. 650 nm", "protocol": "To determine the ability of APIM-based peptide to suppress NKp44-pep8 interaction with PCNA, ELISA plates were coated with recombinant PCNA followed by PBS–skim milk added as described earlier. Plates were then incubated with 25 µg/ml of R11-NLS-pep8 (positive control), R11-NLS-pep8short (negative control), and APIM for 1 h at room temperature followed by addition of biotin-pep8 (5 µg/ml) without washing for 1 h at room temperature. Biotin-pep8 binding to PCNA was detected using streptavidin conjugated HRP (1 h at 1:500 dilution 100 μl/well). Following washing, TMB (100 μl/well DAKO, S1599) was added. O.D. was read at 650 nm (Thermo Electron Corporation Multiskan Spectrum)."}, "B16 melanoma cells": {"test_system": "B16 melanoma cells", "test": "PrestoBlue cell viability, B16", "assay_type": "cell-based, murine", "details": "24 h", "protocol": "as §2"}, "[4]": {"test_system": "PANC-1 pancreas ductal adenocarcinoma cells", "test": "PrestoBlue cell viability, PANC-1", "assay_type": "cell-based, human", "details": "PANC-1, PrestoBlue, 24 h", "protocol": "as §2"}, "[5]": {"test_system": "HepG2 hepatocellular carcinoma cells", "test": "PrestoBlue cell viability, HepG2", "assay_type": "cell-based, human", "details": "24 h", "protocol": "as §2"}, "[6]": {"test_system": "MDA-MB-231 breast adenocarcinoma cells", "test": "PrestoBlue cell viability, MDA-MB-231", "assay_type": "cell-based, human", "details": "MDA-MB-231, PrestoBlue, 24 h", "protocol": "as §2"}, "[7]": {"test_system": "recombinant human PCNA (hPCNA)", "test": "ELISA binding of biotinylated NKp44-derived peptides to plate-bound recombinant PCNA", "details": "biotinylated peptide, 0–7.24 µM (Figure 1A), streptavidin-HRP, TMB, O.D. 650 nm", "protocol": "The pET-28 or pMAL-c2x vectors were used to produce soluble human PCNA (hPCNA) in Rosetta™ 2 (DE3) cells. Plasmids containing the mRNA sequence of PCNA or TL1A, APO-E3, HNF4 were transformed into Rosetta™ 2 cells via heat shock and grown on LB agar plates with kanamycin and chloramphenicol. A fresh colony of transformed bacteria was grown overnight in a 5 ml of LB with kanamycin and chloramphenicol an incubator shaker set to 37°C and at 250 rpm. The next day, bacteria cells were diluted 1:100 into a 500 ml of LB with kanamycin and chloramphenicol (to discard dead cells) and grown to an optical density (O.D.) of 0.6–0.8 (λ = 650 nm). Isopropyl β-D-1-thiogalactopyranoside (0.5 mM) was added for the induction of the PCNA production, and cells were further incubated for 4 h at 26°C (hPCNA). Cells were then centrifuged and the pellet was resuspended with solution A (20 mM Tris–HCl pH 8.0, 0.5 M NaCl, 20 mM imidazole), sonicated six times (20 s with 40 s intervals) and sieved through […] (Sartorius Stedim Biotech) filter before loaded on a His-tag or Amylose resin beads. Purification of His-tagged proteins was done using a Gravity-flow Column with “HisPur™ Ni-NTA Resin” Bead kit (Thermo-Scientific) (binding capacity ≤ 60 mg of a 28 kDa 6xHis-tagged protein from a bacterial source per milliliter of settled resin) according to Kits Protocol. Purification of MBP-tagged proteins was done using the Amylose resin beads (Catalog # E8035S).\nTo determine the interaction between NKp44-derived peptides and PCNA, ELISA plates were coated overnight at 4°C with 2 µg/ml of the recombinant PCNA or TLA1 ([49]), APO-E3 ([50]), HNF4 ([4]), rhFc, rhNKp44-hFc ([12]), rhNKp46-hFc ([51]), and PBS 1× (negative controls). Blocking buffer (PBS + 2.5% skim milk) was applied for 2 h at room temperature, after that the plates were incubated with 0–8 µM of biotinylated NKp44-derived peptides or PBS 1× (background control) for 2 h at room temperature. NKp44-derived peptides binding to PCNA was detected using horseradish peroxidase (HRP)-conjugated to streptavidin (1 h at 1:500 dilution). Following washing, TMB (DAKO, S1599) was added. O.D. was read at 650 nm (Thermo Electron Corporation Multiskan Spectrum). Between each step, wells were washed three times with PBS containing 0.05% Tween 20 (PBST)."}, "[8]": {"target": "T1, recombinant human PCNA (proliferating cell nuclear antigen) (human, UniProt P12004 1-261)", "T1 construct": "proliferating cell nuclear antigen, human; PCNA coated on ELISA plates; also called hPCNA; recombinant PCNA; source: E. coli Rosetta 2 (DE3), purified (Ni-NTA or amylose resin); not shown: His tag or MBP (from the vectors pET-28 or pMAL-c2x)", "T1 sequence (P12004 whole entry)": "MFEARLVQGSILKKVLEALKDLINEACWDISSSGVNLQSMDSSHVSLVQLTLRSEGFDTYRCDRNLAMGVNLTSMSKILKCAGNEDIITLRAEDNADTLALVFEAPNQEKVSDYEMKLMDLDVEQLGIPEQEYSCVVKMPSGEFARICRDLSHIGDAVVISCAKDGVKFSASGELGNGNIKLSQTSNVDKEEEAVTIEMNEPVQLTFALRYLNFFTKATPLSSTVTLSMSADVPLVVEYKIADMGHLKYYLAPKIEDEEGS", "test": "ELISA; plates coated overnight at 4°C with 2 µg/ml recombinant protein; blocked with PBS + 2.5% skim milk; 0-8 µM biotinylated NKp44-derived peptides, 2 h at room temperature; streptavidin-HRP", "details": "both partners purified"}, "[9]": {"target": "T2, MBP-fused recombinant human PCNA (human, UniProt P12004 1-261)", "T2 construct": "proliferating cell nuclear antigen, human; vector pMAL-c2x; Analyte of the SPR experiments; also called MBP-PCNA; hPCNA; source: E. coli Rosetta 2 (DE3), purified (amylose resin)", "T2 sequence (P12004 whole entry, the tested form may be a part)": "as the sequence (P12004 whole entry) above", "test": "SPR; ProteOn XPR36, GLC chip; peptides immobilised by EDC/S-NHS amine coupling; MBP-PCNA 0-250 nM as analyte at 25 µl/min; equilibrium analysis model", "details": "both partners purified"}}, "note": "Ends that are not written are not given here. * marks the point of attachment. Biotin = O=C1N[C@H]2[C@H](CS[C@H]2CCCCC(=O)*)N1"}
{"molecule": "CC[C@@]1(O)C(=O)OCc2c1cc1n(c2=O)Cc2cc3ccccc3nc2-1", "note": "[CPT, camptothecin, reference compound]", "values": [{"measurement": "induction of cell death, in words", "setting": "B16 cells", "result": "lower, but stable levels of cell death"}, {"measurement": "induction of cell death, in words", "setting": "4T1 cells", "result": "lower, but stable levels of cell death"}, {"measurement": "induction of cell death, in words", "setting": "MDA-MB-231 cells", "result": "lower, but stable levels of cell death"}]}
{"molecule": "O=[Se](O)O", "note": "[Selenite, reference compound]", "values": [{"measurement": "effect on cell viability, in words", "setting": "[1]", "result": "significantly reduced cell viability"}, {"measurement": "effect on cell viability, in words", "setting": "[2]", "result": "significantly reduced cell viability"}]}
{"molecule": "MDRWLVK-W-KKKRK-I-RRRRRRRRRRR [APIM, published PCNA-targeting peptide used as positive control, reference compound]", "values": [{"measurement": "induction of cell death, in words", "setting": "B16 cells", "result": "strong induction of cell death"}, {"measurement": "induction of cell death, in words", "setting": "4T1 cells", "result": "strong induction of cell death"}, {"measurement": "induction of cell death, in words", "setting": "MDA-MB-231 cells", "result": "strong induction of cell death"}, {"measurement": "inhibition of pep8 binding to PCNA", "setting": "[3]", "result": 7, "unit": "%"}]}
{"molecule": "RRRRRRRRRRR-I-KKKRK-W-VTSSKPRTVA [R11-NLS-pep8short, R11-NLS fused to pep8short, negative control]", "values": [{"measurement": "effect on cell viability, in words", "setting": "[1]", "result": "did not affect 4T1 cell viability"}, {"measurement": "effect on cell viability, in words", "setting": "[2]", "result": "did not show any effect on tumor cell viability"}, {"measurement": "effect on cell viability, in words", "setting": "B16 melanoma cells", "result": "none to dull effect"}, {"measurement": "effect on cell viability, in words", "setting": "[4]", "result": "none to dull effect"}, {"measurement": "effect on cell viability, in words", "setting": "[5]", "result": "none to dull effect"}, {"measurement": "effect on cell viability, in words", "setting": "[6]", "result": "none to dull effect"}, {"measurement": "induction of cell death, in words", "setting": "B16 cells", "result": "did not induce any cell death"}, {"measurement": "induction of cell death, in words", "setting": "4T1 cells", "result": "did not induce any cell death"}, {"measurement": "induction of cell death, in words", "setting": "MDA-MB-231 cells", "result": "did not induce any cell death"}, {"measurement": "inhibition of pep8 binding to PCNA", "setting": "[3]", "result": 10, "unit": "%"}]}
{"molecule": "VTSSKPRTVA [pep8short, short form of pep8]", "values": [{"measurement": "binding to recombinant hPCNA", "setting": "[7]", "result": "does not bind PCNA"}, {"measurement": "binding to recombinant hPCNA", "setting": "[7]; listed as 10-mer shared core sequence of pep8 and pep10", "result": "did not bind PCNA"}]}
{"molecule": "YPPTGSLYEKKGWCKEASAL [pep5, NKp44-derived peptide used as negative control]", "values": [{"measurement": "binding to recombinant hPCNA", "setting": "[7]", "result": "negative binding"}]}
{"molecule": "Biotin-EASALVCIRLVTSSKPRTVA (NKp44 (NCR2), amino acids 57-76, with the natural SNP variant (rs9471577) valine at 75; also called pep8; NKp44-pep8; source: synthetic peptide (PEP screen, Sigma-Aldrich; selected peptides from GL Biochem))", "note": "[biotinylated NKp44-derived peptide #8]", "values": [{"measurement": "binding result", "setting": "[8]", "result": "binds"}]}
{"molecule": "Biotin-VTSSKPRTVAWTSRFTIWAA (NKp44 (NCR2), amino acids 67-86, with valine at 75 (SNP rs9471577); also called pep10; NKp44-pep10; source: synthetic peptide (PEP screen, Sigma-Aldrich; selected peptides from GL Biochem))", "note": "[biotinylated NKp44-derived peptide #10]", "values": [{"measurement": "binding result", "setting": "[8]", "result": "binds"}]}
{"molecule": "EASALVCIRLVTSSKPRTVA (NKp44 (NCR2), amino acids 57-76, with the natural SNP variant (rs9471577) valine at 75; also called NKp44-pep8; source: synthetic peptide)", "note": "[NKp44-derived pep8 (immobilised for SPR)]", "values": [{"measurement": "Kd", "setting": "[9]", "result": 490, "unit": "nM"}]}
{"molecule": "RRRRRRRRRRRIKKKRKWEASALVCIRLVTSSKPRTVA (not fully specified (residue 38, N-terminus); printed as RRRRRRRRRRR-I-KKKRK-W-EASALVCIRLVTSSKPRTVA, cell-penetrating moiety: R11, I, NLS stretch KKKRK, W; NKp44 (NCR2), amino acids 57-76 (pep8), with valine at 75 (SNP rs9471577); also called CPP-pep8; source: synthetic peptide (GL Biochem, purity > 95%))", "note": "[R11-NLS-pep8]", "values": [{"measurement": "Kd", "setting": "[9]", "result": 87, "unit": "nM"}]}
